How the values were obtained:
Format in all cases: in vivo
[1] = system: Kochia (Kochia scoparia); test: Test A preemergence; details: Bassia scoparia, pre-emergence, 240 h, preemergence, 0 to 100 scale where 0 is no effect and 100 is complete control, read-out: Kochia plant response rating
Method in brief: (§1)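 Visual injury scores from 0, no effect, to 100, complete control, were assigned versus untreated controls roughly 10 d after treatment in the greenhouse. Test chemicals, formulated with surfactant in a non-phytotoxic solvent, were applied to planted seeds as a preemergence soil spray or postemergence to one- to two-leaf plants 2 to 10 cm tall, in loam–sand soil.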

[2] = system: barnyardgrass (Echinochloa crus-galli); test: Test A preemergence; details: Echinochloa crus-galli, pre-emergence, 240 h, preemergence, read-out: Barnyardgrass plant response rating
Method in brief: as §1

[3] = system: giant foxtail (Setaria faberii); test: Test A preemergence; details: Setaria faberi, pre-emergence, 240 h, preemergence, 0 to 100 scale where 0 is no effect and 100 is complete control, read-out: Foxtail, Giant plant response rating
Method in brief: as §1

[4] = system: pigweed (Amaranthus retroflexus); test: Test A preemergence; details: Amaranthus retroflexus, pre-emergence, 240 h, preemergence, 0 to 100 scale where 0 is no effect and 100 is complete control, read-out: Pigweed plant response rating
[5] = system: ragweed (common ragweed, Ambrosia elatior); test: Test A preemergence; details: Ambrosia artemisiifolia, pre-emergence, 240 h, preemergence, 0 to 100 scale where 0 is no effect and 100 is complete control, read-out: Ragweed plant response rating
Method in brief: as §1

[6] = system: ryegrass, Italian (Italian ryegrass, Lolium multiflorum); test: Test A preemergence; details: Lolium multiflorum, pre-emergence, 240 h, preemergence, 0 to 100 scale where 0 is no effect and 100 is complete control, read-out: Ryegrass, Italian plant response rating
Method in brief: as §1

[7] = system: Galium (catchweed bedstraw, Galium aparine); test: Test A postemergence; details: Galium, post-emergence, 240 h, postemergence, read-out: Galium plant response rating
Method in brief: as §1

[8] = system: Kochia (Kochia scoparia); test: Test A postemergence; details: Bassia scoparia, post-emergence, 240 h, postemergence, read-out: Kochia plant response rating
Method in brief: as §1

[9] = system: barnyardgrass (Echinochloa crus-galli); test: Test A postemergence; details: Echinochloa crus-galli, post-emergence, 240 h, postemergence, read-out: Barnyardgrass plant response rating
Method in brief: as §1

[10] = system: corn (Zea mays); test: Test A postemergence; details: Zea mays, post-emergence, 240 h, postemergence, read-out: Corn plant response rating
Method in brief: as §1

[11] = system: giant foxtail (Setaria faberii); test: Test A postemergence; details: Setaria faberi, post-emergence, 240 h, postemergence, read-out: Foxtail, Giant plant response rating
Method in brief: as §1

[12] = system: pigweed (Amaranthus retroflexus); test: Test A postemergence; details: Amaranthus retroflexus, post-emergence, 240 h, postemergence, read-out: Pigweed plant response rating
Method in brief: as §1

[13] = system: ragweed (common ragweed, Ambrosia elatior); test: Test A postemergence; details: Ambrosia artemisiifolia, post-emergence, 240 h, postemergence, read-out: Ragweed plant response rating
Method in brief: as §1

[14] = system: ryegrass, Italian (Italian ryegrass, Lolium multiflorum); test: Test A postemergence; details: Lolium multiflorum, post-emergence, 240 h, postemergence, read-out: Ryegrass, Italian plant response rating
Method in brief: as §1

[15] = system: wheat (Triticum aestivum); test: Test A postemergence; details: Triticum aestivum, post-emergence, 240 h, postemergence, read-out: Wheat plant response rating
Method in brief: as §1

[16] = 125 g ai/ha, visual injury on 0 to 100 scale (0 no effect, 100 complete control), approx. 10 d
[17] = 500 g ai/ha, 0 to 100 scale, 0 is no effect, 100 is complete control

## CN1C[C@H](c2csc(C(F)F)c2)[C@@H](C(=O)Nc2cccc(F)c2F)C1=O [Compound 1122]
[1]; 125 g ai/ha, approx. 10 d
  pest or weed control at 125 g/ha: 60%
[1]; 500 g ai/ha
  pest or weed control at 500 g/ha: 70%
[2]; 125 g ai/ha, 0 to 100 scale where 0 is no effect and 100 is complete control, approx. 10 d
  pest or weed control at 125 g/ha: 90%
[2]; 500 g ai/ha, visual injury rating about 10 d after treatment, 0 to 100 scale (0 no effect, 100 complete control)
  pest or weed control at 500 g/ha: 90%
[3]; 125 g ai/ha, approx. 10 d
  pest or weed control at 125 g/ha: 90%
[3]; 500 g ai/ha
  pest or weed control at 500 g/ha: 90%
[4]; 125 g ai/ha, approx. 10 d
  pest or weed control at 125 g/ha: 30%
[4]; 500 g ai/ha
  pest or weed control at 500 g/ha: 70%
[5]; 125 g ai/ha, approx. 10 d
  pest or weed control at 125 g/ha: 70%
[5]; 500 g ai/ha
  pest or weed control at 500 g/ha: 80%
[6]; 125 g ai/ha, approx. 10 d
  pest or weed control at 125 g/ha: 70%
[6]; 500 g ai/ha
  pest or weed control at 500 g/ha: 90%
[7]; [16]
  pest or weed control at 125 g/ha: 50%
[7]; [17]
  pest or weed control at 500 g/ha: 60%
[8]; [16]
  pest or weed control at 125 g/ha: 60%
[8]; [17]
  pest or weed control at 500 g/ha: 60%
[9]; [16]
  pest or weed control at 125 g/ha: 90%
[9]; [17]
  pest or weed control at 500 g/ha: 90%
[10]; [16]
  plant injury at 125 g/ha: 50%
[10]; [17]
  plant injury at 500 g/ha: 90%
[11]; [16]
  pest or weed control at 125 g/ha: 80%
[11]; [17]
  pest or weed control at 500 g/ha: 90%
[12]; [16]
  pest or weed control at 125 g/ha: 20%
[12]; [17]
  pest or weed control at 500 g/ha: 40%
[13]; [16]
  pest or weed control at 125 g/ha: 50%
[13]; [17]
  pest or weed control at 500 g/ha: 50%
[14]; [16]
  pest or weed control at 125 g/ha: 30%
[14]; [17]
  pest or weed control at 500 g/ha: 60%
[15]; [16]
  plant injury at 125 g/ha: 50%
[15]; [17]
  plant injury at 500 g/ha: 70%

From patent US12077503B2, “Substituted cyclic amides and their use as herbicides” (FMC CORPORATION, priority 2015, dated 2024)
